Laboratory results as given in ChEMBL document CHEMBL1201862, “PubChem BioAssay data set” (2004).
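Compound exposure: 48 hours, 5 concentrations, 96-well plates. Abbreviation: GI50, concentration required for 50% inhibition of growth.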 Calls of active or inactive are those of the source. Cut-off read from the data, not from the text of the source: active = GI50 up to about 1.1 µM and inactive = higher.

Tests used:
Experiment in all cases: DTP human tumour cell line panel, 48 h
[1] = system: HCT-116
[2] = system: MOLT-4
[3] = system: NCI-H23
[4] = system: SK-MEL-5
[5] = system: SW-620
[6] = system: SR
[7] = system: HCT-15
[8] = system: SF-539
[9] = system: SK-MEL-28
[10] = system: MDA-MB-231
[11] = system: SNB-19
[12] = system: COLO 205
[13] = system: 786-0
[14] = system: RPMI-8226
[15] = system: UACC-62
[16] = system: RXF 393
[17] = system: LOX IMVI
[18] = system: SK-OV-3
[19] = system: A549
[20] = system: SF-295

Row | SMILES | GI50 [1] | GI50 [2] | GI50 [3] | GI50 [4] | GI50 [5] | GI50 [6] | GI50 [7] [µM] | GI50 [8] | GI50 [9] | GI50 [10] | GI50 [11] | GI50 [12] | GI50 [13] | GI50 [14] | GI50 [15] | GI50 [16] | GI50 [17] | GI50 [18] | GI50 [19] | GI50 [20]
1 | CCCn1cnc2c(/N=N/O)ncnc21 | > 100 µM (inactive) | > 100 µM (inactive) | > 100 µM (inactive) | > 100 µM (inactive) | > 100 µM (inactive) | > 100 µM (inactive) | > 100 | > 100 µM (inactive) | > 100 µM (inactive) | > 100 µM (inactive) | > 100 µM (inactive) | > 100 µM (inactive) | > 100 µM (inactive) | > 100 µM (inactive) | > 100 µM (inactive) | > 100 µM (inactive) |  |  |  | 
2 | C[C@H]1CC[C@@]2(NC1)O[C@H]1C[C@H]3[C@@H]4CC[C@H]5C[C@@H](O)CC[C@]5(C)[C@H]4CC[C@]3(C)[C@H]1[C@@H]2C | 54.8 µM (inactive) | > 100 µM (inactive) | 85.5 µM (inactive) | 90.4 µM (inactive) |  | 22.9 µM (inactive) | 42.7 | > 100 µM (inactive) |  | 32.2 µM (inactive) | > 100 µM (inactive) | > 100 µM (inactive) | 39.9 µM (inactive) | > 100 µM (inactive) | > 100 µM (inactive) |  | 45.3 µM (inactive) | > 100 µM (inactive) | > 100 µM (inactive) | 55.7 µM (inactive)
3 | Cc1cccc(/C=C2\CCCCCC2=O)c1 | > 100 µM (inactive) | 99.8 µM (inactive) | > 100 µM (inactive) | 79.1 µM (inactive) | > 100 µM (inactive) | > 100 µM (inactive) | > 100 |  | > 100 µM (inactive) | > 100 µM (inactive) | > 100 µM (inactive) | > 100 µM (inactive) | > 100 µM (inactive) | 60.5 µM (inactive) | > 100 µM (inactive) |  | > 100 µM (inactive) | > 100 µM (inactive) | > 100 µM (inactive) | > 100 µM (inactive)
4 | Oc1cc(-c2ccc3ccccc3c2)nc2ncccc12 |  | 4.06 µM (inactive) | 10.7 µM (inactive) |  | 5.18 µM (inactive) | 2.14 µM (inactive) | 4.18 | 6.95 µM (inactive) | 8.63 µM (inactive) | 9.02 µM (inactive) | 17.8 µM (inactive) | 4.05 µM (inactive) | 12.1 µM (inactive) | 3.15 µM (inactive) | 5.41 µM (inactive) |  | 9.93 µM (inactive) | 19.6 µM (inactive) | 4.68 µM (inactive) | 
5 | CNc1ccc(-c2nc3cc(C)ccc3o2)cc1 | > 100 µM (inactive) | 34.9 µM (inactive) | > 100 µM (inactive) | > 100 µM (inactive) | > 100 µM (inactive) |  | > 100 | 49.5 µM (inactive) | > 100 µM (inactive) | 40.1 µM (inactive) | 57.5 µM (inactive) | > 100 µM (inactive) | 47.3 µM (inactive) | > 100 µM (inactive) | 68.5 µM (inactive) | 22.4 µM (inactive) | > 100 µM (inactive) | 18.2 µM (inactive) | > 100 µM (inactive) | 28.9 µM (inactive)
6 | CC(=O)Oc1ccc2cc(-c3ccc(OC(C)=O)c(OC(C)=O)c3)c(=O)oc2c1 | 60.3 µM (inactive) | > 100 µM (inactive) | > 100 µM (inactive) |  | > 100 µM (inactive) | 87.7 µM (inactive) | > 100 | > 100 µM (inactive) | 81.7 µM (inactive) | > 100 µM (inactive) | > 100 µM (inactive) | > 100 µM (inactive) | > 100 µM (inactive) | 39.3 µM (inactive) |  |  | > 100 µM (inactive) |  | 73.6 µM (inactive) | 52.8 µM (inactive)
